Measured values from US10010614B2, “Derivatives of GLP-1 like peptides, and uses thereof” (Novo Nordisk A/S, priority 2013, dated 2018).
Numbered stars: 1 amine (or outer) side, 2 acyl side, 3 side chain; on linkers, the order of the positions; unused ones are H or OH. Square brackets hold non-standard residues; d marks the D form. Side chains are listed from the residue outwards. Peptide text beside a SMILES is read from it. * marks the point of attachment. X1 = O=C(O)CCCCCCCCCCCCCCCCCCC(=O)NCC1CCC(C(=O)*)CC1; C20 diacid = O=C(O)CCCCCCCCCCCCCCCCCCC(=O)*; γGlu = O=C(O)[C@H](CCC(=O)[*:2])N[*:1]; εLys = N[C@@H](CCCCN[*:1])C(=O)[*:2]; Trx = NC[C@H]1CC[C@H](C(=O)O)CC1; AEEA = NCCOCCOCC(=O)O; Aib = CC(C)(N)C(=O)O

Experiment: Pharmacokinetic study in minipigs (i.v.)
Format: in vivo
Conditions: male, Göttingen, minipig, plasma, iv; read-out: Terminal half-live (converted)
Protocol: The purpose of this study is to determine the protraction in vivo of the GLP-1 derivatives after i.v. administration to minipigs, i.e. the prolongation of their time in the body and thereby their time of action. This is done in a pharmacokinetic (PK) study, where the terminal half-life of the derivative in question is determined. By terminal half-life is meant the time it takes to halve a certain plasma concentration in the terminal elimination phase.
The derivatives of Examples 1-5 were dosed with 2 nmol/kg, the derivative of Example 6 was dosed with 5 nmol/kg, and the derivatives of Examples 7-9 were dosed with 15 nmol/kg.
Male Göttingen minipigs were obtained from Ellegaard Göttingen Minipigs (Dalmose, Denmark) approximately 7-14 months of age and weighing approximately 16-35 kg were used in the studies. The minipigs were housed either individually (pigs with permanent catheters) or in a group and fed restrictedly once or twice daily with SDS minipig diet (Special Diets Services, Essex, UK).
After at least 2 weeks of acclimatisation two permanent central venous catheters were implanted in vena cava caudalis or cranialis in each animal. The animals were allowed 1 week recovery after the surgery, and were then used for repeated pharmacokinetic studies with a suitable wash-out period between successive GLP-1 derivative dosings.
The GLP-1 derivatives were dissolved in 50 mM sodium phosphate, 70-145 mM sodium chloride, 0.05% tween 80, pH 7.4 to a concentration of usually from 20-60 nmol/ml.
Intravenous injections (the volume corresponding to for example 0.050-0.125 ml/kg) of the compounds were given through one catheter or through the venflon, and blood was sampled at predefined time points for up till 25 days post dosing (preferably through the other catheter or by venipuncture). Blood samples (for example 0.8 ml) were collected in EDTA buffer (8 mM) and then centrifuged at 4° C. and 1942G for 10 minutes.
Plasma was pipetted into Micronic tubes on dry ice, and kept at −20° C. until analysed for plasma concentration of the respective GLP-1 compound using LOCI. Individual plasma concentration-time profiles were analyzed by a non-compartmental pharmacokinetic method in Phoenix v. 6.2 (Pharsight Inc., Mountain View, Calif., USA), or other relevant software for PK analysis, and the resulting terminal half-lives (harmonic mean) determined.

SMILES | half-life [h]
CC[C@H](C)[C@H](NC(=O)[C@H](Cc1ccccc1)NC(=O)[C@H](CCC(=O)O)NC(=O)[C@H](CCCNC(=N)N)NC(=O)[C@H](C)NC(=O)[C@H](C)NC(=O)[C@H](CCCCNC(=O)COCCOCCNC(=O)COCCOCCNC(=O)CC[C@H](NC(=O)C1CCC(CNC(=O)CCCCCCCCCCCCCCCCCCC(=O)O)CC1)C(=O)O)NC(=O)[C@H](CCC(=O)O)NC(=O)[C@H](CCC(=O)O)NC(=O)[C@H](CC(C)C)NC(=O)[C@H](Cc1ccc(O)cc1)NC(=O)[C@H](CO)NC(=O)[C@H](CO)NC(=O)[C@@H](NC(=O)[C@H](CC(=O)O)NC(=O)[C@H](CO)NC(=O)[C@@H](NC(=O)[C@H](Cc1ccccc1)NC(=O)[C@@H](NC(=O)CNC(=O)[C@H](CCC(=O)O)NC(=O)C(C)(C)NC(=O)[C@@H](N)Cc1c[nH]cn1)[C@@H](C)O)[C@@H](C)O)C(C)C)C(=O)N[C@@H](C)C(=O)N[C@@H](Cc1c[nH]c2ccccc12)C(=O)N[C@@H](CC(C)C)C(=O)N[C@H](C(=O)N[C@@H](CCCNC(=N)N)C(=O)NCC(=O)N[C@@H](CCCNC(=N)N)C(=O)NCC(=O)NCC(=O)NCC(=O)NCC(=O)N[C@@H](CO)C(=O)N[C@@H](CCCCNC(=O)COCCOCCNC(=O)COCCOCCNC(=O)CC[C@H](NC(=O)C1CCC(CNC(=O)CCCCCCCCCCCCCCCCCCC(=O)O)CC1)C(=O)O)C(=O)O)C(C)C (stereo partly shown) [Example 4] (H-H[Aib]EGTFTSDVSSYLEEK([AEEA-AEEA-γGlu-X1])AAREFIAWLVRGRGGGGSK([AEEA-AEEA-γGlu-X1])-OH; N-terminus and C-terminus assumed) | 137
CC[C@H](C)[C@H](NC(=O)[C@H](Cc1ccccc1)NC(=O)[C@H](CCC(=O)O)NC(=O)[C@H](CCCNC(=N)N)NC(=O)[C@H](C)NC(=O)[C@H](C)NC(=O)[C@H](CCC(N)=O)NC(=O)[C@H](CCC(=O)O)NC(=O)[C@H](CCC(=O)O)NC(=O)[C@H](CC(C)C)NC(=O)[C@H](Cc1ccc(O)cc1)NC(=O)[C@H](CO)NC(=O)[C@H](CO)NC(=O)[C@@H](NC(=O)[C@H](CC(=O)O)NC(=O)[C@H](CO)NC(=O)[C@@H](NC(=O)[C@H](Cc1ccccc1)NC(=O)[C@@H](NC(=O)CNC(=O)[C@H](CCC(=O)O)NC(=O)C(C)(C)NC(=O)[C@@H](N)Cc1c[nH]cn1)[C@@H](C)O)[C@@H](C)O)C(C)C)C(=O)N[C@@H](C)C(=O)N[C@@H](Cc1c[nH]c2ccccc12)C(=O)N[C@@H](CC(C)C)C(=O)N[C@H](C(=O)N[C@@H](CCCNC(=N)N)C(=O)NCC(=O)N[C@@H](CCCNC(=N)N)C(=O)NCC(=O)N[C@@H](CCCCNC(=O)[C@@H](N)CCCCNC(=O)[C@@H](N)CCCCNC(=O)CC[C@H](NC(=O)[C@H]1CC[C@H](CNC(=O)CCCCCCCCCCCCCCCCCCC(=O)O)CC1)C(=O)O)C(=O)NCC(=O)NCC(=O)N[C@@H](CO)C(=O)N[C@@H](CCCCNC(=O)[C@@H](N)CCCCNC(=O)[C@@H](N)CCCCNC(=O)CC[C@H](NC(=O)[C@H]1CC[C@H](CNC(=O)CCCCCCCCCCCCCCCCCCC(=O)O)CC1)C(=O)O)C(=O)O)C(C)C [Example 7] (H-H[Aib]EGTFTSDVSSYLEEQAAREFIAWLVRGRGK([εLys-εLys-γGlu-Trx-C20 diacid])GGSK([εLys-εLys-γGlu-Trx-C20 diacid])-OH) | 106
CC[C@H](C)[C@H](NC(=O)[C@H](Cc1ccccc1)NC(=O)[C@H](CCCCNC(=O)COCCOCCNC(=O)COCCOCCNC(=O)CC[C@H](NC(=O)C1CCC(CNC(=O)CCCCCCCCCCCCCCCCCCC(=O)O)CC1)C(=O)O)NC(=O)[C@H](CCCNC(=N)N)NC(=O)[C@H](C)NC(=O)[C@H](C)NC(=O)[C@H](CCC(N)=O)NC(=O)[C@H](CCC(=O)O)NC(=O)[C@H](CCC(=O)O)NC(=O)[C@H](CC(C)C)NC(=O)[C@H](Cc1ccc(O)cc1)NC(=O)[C@H](CO)NC(=O)[C@H](CO)NC(=O)[C@@H](NC(=O)[C@H](CC(=O)O)NC(=O)[C@H](CO)NC(=O)[C@@H](NC(=O)[C@H](Cc1ccccc1)NC(=O)[C@@H](NC(=O)CNC(=O)[C@H](CCC(=O)O)NC(=O)C(C)(C)NC(=O)[C@@H](N)Cc1c[nH]cn1)[C@@H](C)O)[C@@H](C)O)C(C)C)C(=O)N[C@@H](C)C(=O)N[C@@H](Cc1c[nH]c2ccccc12)C(=O)N[C@@H](CC(C)C)C(=O)N[C@H](C(=O)N[C@@H](CCCNC(=N)N)C(=O)NCC(=O)N[C@@H](CCCNC(=N)N)C(=O)NCC(=O)NCC(=O)NCC(=O)NCC(=O)N[C@@H](CO)C(=O)N[C@@H](CCCCNC(=O)COCCOCCNC(=O)COCCOCCNC(=O)CC[C@H](NC(=O)C1CCC(CNC(=O)CCCCCCCCCCCCCCCCCCC(=O)O)CC1)C(=O)O)C(=O)O)C(C)C (stereo partly shown) [Example 1] (H-H[Aib]EGTFTSDVSSYLEEQAARK([AEEA-AEEA-γGlu-X1])FIAWLVRGRGGGGSK([AEEA-AEEA-γGlu-X1])-OH; N-terminus and C-terminus assumed) | 121
CC[C@H](C)[C@H](NC(=O)[C@H](Cc1ccccc1)NC(=O)[C@H](CCC(=O)O)NC(=O)[C@H](CCCNC(=N)N)NC(=O)[C@H](C)NC(=O)[C@H](C)NC(=O)[C@H](CCC(N)=O)NC(=O)[C@H](CCC(=O)O)NC(=O)[C@H](CCC(=O)O)NC(=O)[C@H](CC(C)C)NC(=O)[C@H](Cc1ccc(O)cc1)NC(=O)[C@H](CO)NC(=O)[C@H](CO)NC(=O)[C@@H](NC(=O)[C@H](CC(=O)O)NC(=O)[C@H](CO)NC(=O)[C@@H](NC(=O)[C@H](Cc1ccccc1)NC(=O)[C@@H](NC(=O)CNC(=O)[C@H](CCC(=O)O)NC(=O)C(C)(C)NC(=O)[C@@H](N)Cc1c[nH]cn1)[C@@H](C)O)[C@@H](C)O)C(C)C)C(=O)N[C@@H](C)C(=O)N[C@@H](Cc1c[nH]c2ccccc12)C(=O)N[C@@H](CC(C)C)C(=O)N[C@H](C(=O)N[C@@H](CCCNC(=N)N)C(=O)NCC(=O)N[C@@H](CCCCNC(=O)COCCOCCNC(=O)COCCOCCNC(=O)CC[C@H](NC(=O)C1CCC(CNC(=O)CCCCCCCCCCCCCCCCCCC(=O)O)CC1)C(=O)O)C(=O)NCC(=O)NCC(=O)NCC(=O)NCC(=O)N[C@@H](CO)C(=O)N[C@@H](CCCCNC(=O)COCCOCCNC(=O)COCCOCCNC(=O)CC[C@H](NC(=O)C1CCC(CNC(=O)CCCCCCCCCCCCCCCCCCC(=O)O)CC1)C(=O)O)C(=O)O)C(C)C (stereo partly shown) [Example 5] (H-H[Aib]EGTFTSDVSSYLEEQAAREFIAWLVRGK([AEEA-AEEA-γGlu-X1])GGGGSK([AEEA-AEEA-γGlu-X1])-OH; N-terminus and C-terminus assumed) | 131
